# Results published in patent US6410219B1 (priority 1994, dated 2002).
# Structures can show the parent of a compound that is named as a salt.
# Key:
# R-17 = type: cell-based, bacteriophage R17
# CA-HIV = type: cell-based
# red blood cells [1] = tested on: red blood cells
# R17 [2] = type: cell-based, bacteriophage R17
# red blood cells [3] = assay: IgG binding to red blood cell surfaces (Example 10); type: cell-based; conditions: 10-300 μg/ml
# Experimental: Potassium levels on remaining samples were measured and the samples were stored at 4° C. Potassium measurements were repeated daily for one week or until significant differences were observed. Extracellular potassium data appears in Table 15, and FIG. 6. IgG binding in the samples was measured using Baxter Unival Anti-Human Globulin Anti-IgG for Direct Antiglobulin Test and Baxter Coornbs control Cells for Quality Control of Anti-Human Globulin Test (both available from Baxter Healthcare Corporation, Deerfield, Ill.). The results of IgG Binding as measured by FACScan™ (Becton Dickinson, Mountain View, Calif.) appear in Tables 15 and 16: […]
# red blood cells [4] = conditions: mouse, in vivo
# red blood cells [5] = conditions: Swiss Webster, mouse, in vivo
# R17 [6] = type: cell-based, bacteriophage R17; remark: listed apart in the source
compound,measurement,setting,value
COc1c2occc2c(CN(C)CO)c2ccc(=O)oc12,Dose for 5 log kill R-17,R-17,>75 μM
same,"Logs Virus Killed at Fixed Drug Dose, R-17",R-17,<0.5
"4′-[3-(Bis-2-chloroethyl)amino-1-propylaminomethyl]-4,5′,8-trimethylpsoralen","Logs Virus Killed at Fixed Drug Dose, CA-HIV",CA-HIV,0.4
same,Dose for 5 log kill R-17,R-17,≦2 μM
"4′-[4-(Bis-2-chloroethyl)amino-1-butylaminomethyl]-4,5′,8-trimethylpsoralen [Compound S-210]","Logs Virus Killed at Fixed Drug Dose, CA-HIV",CA-HIV,0.8
"5′-[4-(Bis-2chloroethyl)amino-1-butylaminomethyl]-4,4′, 8-trimethylpsoralen","Logs Virus Killed at Fixed Drug Dose, CA-HIV",CA-HIV,0.7
same,Dose for 5 log kill R-17,R-17,≦2 μM
same,"Logs Virus Killed at Fixed Drug Dose, R-17",R-17,>6
"O=C(O)CCCc1ccc(N(CCCl)CCCl)cc1 [Chlorambucil, chlorambucil]",potassium leakage of red cells,red blood cells [1],did not alter
same,R17 inactivation,R17 [2],≤ 0.4 logs
same,IgG binding of red cells,red blood cells [3],did not alter
"CCN(CCCl)CCCNc1c2ccc(Cl)cc2nc2ccc(OC)cc12 [ICR-170, N-(2-chloroethyl)-N-ethyl-N′-(6-chloro-2-methoxy-9-acridinyl)-1,3-propanediamine dihydrochloride]","% RECOVERY, LOW",red blood cells [4]; Balb/c,93.1%
same,"% RECOVERY, HIGH",red blood cells [4],90.4%
same,LOSS PER DAY,red blood cells [5],2.71%
same,RECOVERY,red blood cells [5],86.0 ± 6.6
"CCN(CC)CCCC(C)Nc1c2ccc(Cl)cc2nc2ccc(OC)cc12 (stereo not shown) [Q, quinicrine]",light-dependent kill of R17,R17 [6],no light-dependent kill
